Measurements: ChEMBL document CHEMBL1201862, “PubChem BioAssay data set” (2004)
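How tested: cells in 96-well plates exposed to compound for 48 hours at five concentrations. GI50 marks 50% less growth.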 Calls of active or inactive are those of the source. Rule as the data show it: active = GI50 up to about 1.1 µM and inactive = higher.

Key:
Experiment in all cases: DTP human tumour cell line panel, 48 h
A498 = tested on: A498
COLO 205 = tested on: COLO 205
HCT-15 = tested on: HCT-15
HT-29 = tested on: HT-29
IGROV-1 = tested on: IGROV-1
MOLT-4 = tested on: MOLT-4
Malme-3M = tested on: Malme-3M
NCI-H460 = tested on: NCI-H460
OVCAR-3 = tested on: OVCAR-3
RXF 393 = tested on: RXF 393
SF-539 = tested on: SF-539
SK-MEL-28 = tested on: SK-MEL-28
SK-MEL-2 = tested on: SK-MEL-2
SK-MEL-5 = tested on: SK-MEL-5
SN12C = tested on: SN12C
SNB-75 = tested on: SNB-75
TK-10 = tested on: TK-10
UO-31 = tested on: UO-31
T47D = tested on: T47D

Measured: GI50

O/N=C1/CCCC/C1=C/C=C/c1ccccc1
14.9 µM: HCT-15
inactive: A498 20.9 µM | COLO 205 19.4 µM | HT-29 18.3 µM | IGROV-1 16.5 µM | MOLT-4 19 µM | Malme-3M 21.3 µM | NCI-H460 22.7 µM | OVCAR-3 17.9 µM | RXF 393 19.4 µM | SF-539 20.2 µM | SK-MEL-28 3.42 µM | SK-MEL-2 17.7 µM | SK-MEL-5 16.5 µM | SN12C 17.8 µM | SNB-75 20.4 µM | TK-10 29 µM | UO-31 20.6 µM

O=C1C(c2ccccc2)=C(O)c2cccc3cccc1c23
> 100 µM: HCT-15
inactive: A498 > 100 µM | COLO 205 > 100 µM | HT-29 > 100 µM | IGROV-1 > 100 µM | MOLT-4 > 100 µM | Malme-3M > 100 µM | NCI-H460 > 100 µM | OVCAR-3 47.4 µM | RXF 393 > 100 µM | SF-539 > 100 µM | SK-MEL-28 > 100 µM | SK-MEL-2 > 100 µM | SK-MEL-5 > 100 µM | SN12C > 100 µM | SNB-75 40.3 µM | TK-10 > 100 µM | UO-31 > 100 µM

OC(CC1SCCCS1)c1ccccc1 (stereo not given)
inactive: A498 > 100 µM | COLO 205 > 100 µM | HT-29 > 100 µM | IGROV-1 > 100 µM | MOLT-4 > 100 µM | Malme-3M > 100 µM | NCI-H460 > 100 µM | OVCAR-3 > 100 µM | RXF 393 > 100 µM | SF-539 > 100 µM | SK-MEL-2 > 100 µM | SK-MEL-5 > 100 µM | SN12C > 100 µM | SNB-75 > 100 µM | TK-10 > 100 µM | UO-31 > 100 µM
> 100 µM: HCT-15

CN(C)C(=S)/N=c1\ss/c(=N\C(=S)N(C)C)n1C1CCCCC1
inactive: A498 > 100 µM | COLO 205 30.8 µM | IGROV-1 > 100 µM | MOLT-4 80.2 µM | Malme-3M > 100 µM | OVCAR-3 > 100 µM | RXF 393 > 100 µM | SF-539 > 100 µM | SK-MEL-28 > 100 µM | SK-MEL-2 > 100 µM | SK-MEL-5 2.29 µM | SN12C > 100 µM | SNB-75 76.4 µM | TK-10 > 100 µM | UO-31 > 100 µM
active: HT-29 0.458 µM | NCI-H460 0.515 µM
> 100 µM: HCT-15

CC1=CC2=C(C=O)C(=O)[C@](C)(O)[C@@H](O)C2=CO1
28.8 µM: HCT-15
inactive: A498 24.3 µM | COLO 205 28.1 µM | HT-29 37.7 µM | IGROV-1 32.1 µM | MOLT-4 15.6 µM | Malme-3M 26.4 µM | NCI-H460 29.9 µM | OVCAR-3 1.56 µM | RXF 393 16.7 µM | SF-539 29.4 µM | SK-MEL-28 25.2 µM | SK-MEL-2 24.2 µM | SK-MEL-5 24.6 µM | SN12C 28.6 µM | SNB-75 13.8 µM | UO-31 16.8 µM

O=C(NC1C(=O)NNC1c1ccccc1Cl)c1ccccc1 (stereo not given)
inactive: A498 > 100 µM | COLO 205 > 100 µM | HT-29 > 100 µM | IGROV-1 > 100 µM | MOLT-4 64.4 µM | Malme-3M > 100 µM | NCI-H460 > 100 µM | OVCAR-3 > 100 µM | RXF 393 > 100 µM | SF-539 > 100 µM | SK-MEL-28 > 100 µM | SK-MEL-2 > 100 µM | SK-MEL-5 > 100 µM | SN12C > 100 µM | SNB-75 > 100 µM | TK-10 > 100 µM | UO-31 > 100 µM
> 100 µM: HCT-15

CC1(CO)C(O)CCC2(C)C1C(O)CC1CC3CC12CCC3(O)CO (stereo not given)
inactive: A498 > 225 µM | COLO 205 > 225 µM | HT-29 > 225 µM | IGROV-1 > 225 µM | MOLT-4 > 96.6 µM | Malme-3M > 225 µM | NCI-H460 77.1 µM | OVCAR-3 > 225 µM | RXF 393 > 225 µM | SF-539 > 225 µM | SK-MEL-28 > 225 µM | SK-MEL-2 > 225 µM | SK-MEL-5 > 225 µM | SN12C > 225 µM | SNB-75 > 189 µM | UO-31 > 217 µM
> 225 µM: HCT-15

Cc1oc2c(C)c3oc(=O)cc(C)c3cc2c1CN
36.9 µM: HCT-15
inactive: A498 41.5 µM | COLO 205 33.1 µM | HT-29 31.9 µM | MOLT-4 24.7 µM | Malme-3M 25.2 µM | NCI-H460 27.9 µM | OVCAR-3 61.4 µM | RXF 393 15.9 µM | SF-539 40.9 µM | SK-MEL-28 71 µM | SK-MEL-2 46.1 µM | SN12C 42.5 µM | SNB-75 33.9 µM | TK-10 27.8 µM | UO-31 30.1 µM

N#C/C(=C\c1ccc(O)c(O)c1)C(N)=O
50.6 µM: HCT-15
inactive: A498 > 100 µM | COLO 205 58.1 µM | HT-29 69.8 µM | IGROV-1 76.4 µM | MOLT-4 12.5 µM | Malme-3M 50.6 µM | NCI-H460 38 µM | OVCAR-3 28.2 µM | RXF 393 19.7 µM | SF-539 30.5 µM | SK-MEL-28 41 µM | SK-MEL-2 > 100 µM | SN12C 39.2 µM | SNB-75 17.7 µM | TK-10 77.6 µM | UO-31 31.8 µM

COc1cc(-c2ccccc2)c(OC)cc1CCl
> 100 µM: HCT-15
inactive: A498 > 100 µM | COLO 205 > 100 µM | HT-29 > 100 µM | IGROV-1 > 100 µM | MOLT-4 > 100 µM | Malme-3M > 100 µM | NCI-H460 > 100 µM | OVCAR-3 > 100 µM | RXF 393 > 100 µM | SF-539 > 100 µM | SK-MEL-2 > 100 µM | SK-MEL-5 > 100 µM | SN12C > 100 µM | SNB-75 > 100 µM | TK-10 > 100 µM | UO-31 > 100 µM

C/C(=N\NC(N)=S)c1cc(C)c(C)cc1C
inactive: A498 81.7 µM | COLO 205 27.7 µM | HT-29 20.2 µM | IGROV-1 31 µM | MOLT-4 20.2 µM | Malme-3M 32.6 µM | NCI-H460 43.9 µM | OVCAR-3 24.4 µM | RXF 393 29 µM | SF-539 35.5 µM | SK-MEL-28 86.7 µM | SK-MEL-2 34.6 µM | SK-MEL-5 57 µM | SN12C > 100 µM | SNB-75 30.6 µM | TK-10 89.5 µM | UO-31 56.8 µM
83.8 µM: HCT-15

CC(=O)OC(CC1(C)C(C)CCC23COC(=O)C2=CCCC31)c1ccoc1 (stereo not given)
inactive: A498 45.3 µM | COLO 205 40.4 µM | HT-29 29.6 µM | MOLT-4 19.5 µM | Malme-3M 21.8 µM | NCI-H460 40.4 µM | OVCAR-3 20.8 µM | RXF 393 14.2 µM | SF-539 25.9 µM | SK-MEL-28 17.7 µM | SK-MEL-2 23.4 µM | SK-MEL-5 19.5 µM | SN12C 19.9 µM | SNB-75 23.3 µM | UO-31 19.1 µM
20.4 µM: HCT-15

O=[N+]([O-])c1ccc(/C(Cl)=C/c2ccc(/C=C(\Cl)c3ccc([N+](=O)[O-])cc3[N+](=O)[O-])cc2)c([N+](=O)[O-])c1
active: OVCAR-3 0.729 µM
inactive: A498 > 100 µM | COLO 205 > 100 µM | HT-29 > 100 µM | IGROV-1 > 100 µM | MOLT-4 > 100 µM | Malme-3M > 100 µM | NCI-H460 > 100 µM | RXF 393 > 100 µM | SF-539 > 100 µM | SK-MEL-28 > 100 µM | SK-MEL-2 > 100 µM | SK-MEL-5 > 100 µM | SN12C > 100 µM | SNB-75 > 100 µM | TK-10 > 100 µM | UO-31 > 100 µM
> 100 µM: HCT-15

O=C1OC(c2ccccc2)=N/C1=C/NC(CS)C(=O)O (stereo not given)
inactive: A498 > 100 µM | COLO 205 > 100 µM | HT-29 > 100 µM | IGROV-1 > 100 µM | MOLT-4 > 100 µM | Malme-3M > 100 µM | NCI-H460 > 100 µM | OVCAR-3 > 100 µM | RXF 393 > 100 µM | SF-539 > 100 µM | SK-MEL-28 > 100 µM | SK-MEL-2 > 100 µM | SK-MEL-5 > 100 µM | SN12C > 100 µM | SNB-75 64.3 µM | TK-10 > 100 µM | UO-31 > 100 µM
> 100 µM: HCT-15

COC[C@H]1OC(=O)c2coc3c2[C@@]1(C)C1=C(C3=O)[C@@H]2CCC(=O)[C@@]2(C)C[C@H]1OC(C)=O [WORTMANNIN]
inactive: COLO 205 10 µM | HT-29 1.97 µM | IGROV-1 1.28 µM | MOLT-4 2.09 µM | NCI-H460 8.95 µM | OVCAR-3 4.65 µM | SF-539 2.82 µM | SK-MEL-28 7.45 µM | SK-MEL-2 2.21 µM | SK-MEL-5 11.5 µM | SN12C 7.14 µM | TK-10 11.9 µM
9.91 µM: HCT-15
active: SNB-75 0.323 µM | T47D 0.637 µM | UO-31 0.665 µM

COC(=O)c1c(C)cc2c(c1O)C1(O)C(=O)c3cc4c(c(O)c3C(=O)C1(OC)C(O)C2)C(=O)C=C(NC1OC(C)C(OC)C(O)C1OC)C4=O (stereo not given)
active: A498 0.259 µM | COLO 205 0.0532 µM | HT-29 0.0493 µM | IGROV-1 0.0134 µM | MOLT-4 0.0208 µM | Malme-3M 0.0538 µM | NCI-H460 0.0986 µM | OVCAR-3 0.11 µM | RXF 393 0.0161 µM | SF-539 0.0605 µM | SK-MEL-2 0.0284 µM | SN12C 0.139 µM | SNB-75 0.141 µM | TK-10 0.114 µM | UO-31 0.14 µM
0.106 µM: HCT-15
